From US10941114B2, “Small molecule lipid II inhibitors” (University Of Maryland, Baltimore, priority 2015, dated 2021)
Where a name gives a salt, the structure may show the parent alone. Read-outs that look alike come from different tables or passages of the source.

How the values were obtained:
Experiment in all cases: Antibacterial activity assay (MIC, broth dilution)
Format in all cases: cell-based
Enterococcus faecalis = details: for MIC EF 15951: Enterococcus faecalis 15951, broth microdilution; for MIC: Enterococcus faecalis
Staphylococcus aureus = details: for MIC SA USA300: Staphylococcus aureus USA 300 strain, broth microdilution; for MIC: Staphylococcus aureus, Table 21, read-out: Staphylococcus aureus MIC
Enterococcus faecium = details: Enterococcus faecium, cation-adjusted Mueller Hinton broth, 10% BHI
Procedure: Determination of the Minimal Inhibitory Concentrations (MIC) by dilution was carried out by broth dilution according to CLSI standards. See CLSI, Methods for Dilution Antimicrobial Susceptibility Tests for Bacteria That Grow Aerobically; Approved Standard—Eighth Edition. 2009, the contents of which are hereby incorporated by reference. Briefly, the minimum inhibitory concentration MIC, is the lowest concentration of a compound that prevents visible growth of a bacterium, in other words at which it has bacteriostatic activity.
For these tests, cation-adjusted Mueller Hinton broth, containing 10% brain-heart infusion (BHI) was used. Concentrations (MIC) are given in μg/mL. The compound was […].
Compounds were tested for MIC by methods known in the art and described in CLSI, Methods for Dilution Antimicrobial Susceptibility Tests for Bacteria That Grow Aerobically; Approved Standard—Tenth Edition. CLSI document M07-A10. Wayne, Pa.: Clinical and Laboratory Standards Institute, 2015, which is hereby incorporated by reference for these methods.
Selected compounds also were tested by broth microdilution methods known in the art and described in CLSI, Methods for Dilution Antimicrobial Susceptibility Tests for Bacteria That Grow Aerobically; Approved Standard—Tenth Edition. CLSI document M07-A10. Wayne, Pa.: Clinical and Laboratory Standards Institute, 2015, which is hereby incorporated by reference. Structures of selected compounds in the tables are listed below.

[1] = cation-adjusted Mueller Hinton broth, 10% BHI, read-out: MIC E. faecalis 51299
[2] = cation-adjusted Mueller Hinton broth, 10% BHI, read-out: MIC E. faecalis 51575
[3] = cation-adjusted Mueller Hinton broth, 10% BHI, read-out: MIC E. faecalis C99707
[4] = read-out: MIC E. faecium C110914
[5] = read-out: MIC E. faecium IH79985
[6] = Table 21, read-out: Escherichia feacalis MIC

Compound | MIC EF 15951 (Enterococcus faecalis) | MIC SA USA300 (Staphylococcus aureus) | MIC (Enterococcus faecalis; [6]) | MIC (Staphylococcus aureus) | further results
CN(C)c1ccc(-c2cc(/C=C/c3ccc(N(C)CCC#N)cc3)[n+](C)c(-c3ccc(Br)cc3)c2)cc1.[I-] [Compound 3jc01-4, (E)-2-(4-bromophenyl)-6-(4-((2-cyanoethyl)(methyl)amino)styryl)-4-(4-(dimethylamino)phenyl)-1-methylpyridin-1-ium iodide salt] | 32 µg/mL | 32 µg/mL |  |  | 
Cc1ccc(-c2cc(/C=C/c3cc4c5c(c3)CCCN5CCC4)[o+]c(-c3ccc(C)c(C)c3)c2)cc1C [Compound 6jc69-3, (E)-2,4-bis(3,4-dimethylphenyl)-6-(2-(1,2,3,5,6,7-hexahydropyrido[3,2,1-ij]quinolin-9-yl)vinyl)pyrylium boron tetrafluoride salt] |  |  |  |  | MIC (Enterococcus faecalis; [1]): 1 µg/mL; MIC (Enterococcus faecalis; [2]): 2 µg/mL; MIC (Enterococcus faecalis; [3]): 1 µg/mL; MIC (Enterococcus faecium; [4]): 2 µg/mL; MIC (Enterococcus faecium; [5]): 4 µg/mL; MIC (Enterococcus faecium; read-out: MIC E. faecium S1559): 2 µg/mL
CCN(CCC#N)c1ccc(/C=C/c2cc(-c3ccc(Br)cc3)cc(-c3ccc(Br)cc3)[o+]2)c(C)c1.F[B-](F)(F)F |  |  | > 64 µg/mL | > 64 µg/mL | 
CN(CCC#N)c1ccc(/C=C/c2cc(-c3ccc(Cl)cc3)cc(-c3ccc(F)cc3)[n+]2C)cc1.[I-] [Compound 2jc43-2, (E)-4-(4-chlorophenyl)-2-(4-((2-cyanoethyl)(methyl)amino)styryl)-6-(4-fluorophenyl)-1-methylpyridin-1-ium iodide salt] | 2 µg/mL | 2 µg/mL |  |  | 
(E)-4-(4-((2-cyanoethyl)(methyl)amino)phenyl)-2-(4-(dimethylamino)styryl)-6-(4-fluorophenyl)-1-methylpyridin-1-ium iodide salt [Compound 3jc01-5] | 4 µg/mL | 1 µg/mL |  |  | 
CN(C)c1ccc(/C=C/c2cc(-c3ccc(N(C)C)cc3)cc(-c3ccc(F)cc3)[n+]2C)cc1.[I-] [Compound 3jc01-1, (E)-4-(4-(dimethylamino)phenyl)-2-(4-(dimethylamino)styryl)-6-(4-fluorophenyl)-1-methylpyridin-1-ium iodide salt] | 1 µg/mL | 2 µg/mL |  |  | 
CN(CCC#N)c1ccc(/C=C/c2cc(-c3ccc(F)c(F)c3)cc(-c3ccc(F)c(F)c3)[o+]2)cc1.F[B-](F)(F)F |  |  | > 64 µg/mL | > 64 µg/mL | 
CN(CCC#N)c1ccc(/C=C/c2cc(-c3ccc(N(C)CCC#N)cc3)cc(-c3ccc(F)cc3)[n+]2C)cc1.[I-] [Compound 3jc01-6, (E)-4-(4-((2-cyanoethyl)(methyl)amino)phenyl)-2-(4-((2-cyanoethyl)(methyl)amino)styryl)-6-(4-fluorophenyl)-1-methylpyridin-1-ium iodide salt] | 8 µg/mL | 1 µg/mL |  |  | 
CCN(CC)c1ccc(/C=C/c2cc(-c3ccc(F)cc3)cc(-c3ccc(F)cc3)[o+]2)c(O)c1.F[B-](F)(F)F |  |  | > 64 µg/mL | 64 µg/mL | 
CN(C)c1ccc(-c2cc(/C=C/c3ccc(N(C)CCC#N)cc3)[n+](C)c(-c3ccc(F)cc3)c2)cc1.[I-] [Compound 3jc01-2, (E)-2-(4-((2-cyanoethyl)(methyl)amino)styryl)-4-(4-(dimethylamino)phenyl)-6-(4-fluorophenyl)-1-methylpyridin-1-ium iodide salt] | 16 µg/mL | 32 µg/mL |  |  | 
CN(C)c1ccc(/C=C/c2cc(-c3ccc(N(C)C)cc3)cc(-c3ccc(Br)cc3)[n+]2C)cc1.[I-] [Compound 3jc01-3, (E)-2-(4-bromophenyl)-4-(4-(dimethylamino)phenyl)-6-(4-(dimethylamino)styryl)-1-methylpyridin-1-ium iodide salt] | 1 µg/mL | 1 µg/mL |  |  | 
CCc1ccc(-c2cc(/C=C/c3cc4c5c(c3)CCCN5CCC4)[o+]c(-c3ccc(CC)cc3)c2)cc1 [Compound 6jc69-1, (E)-2,4-bis(4-ethylphenyl)-6-(2-(1,2,3,5,6,7-hexahydropyrido[3,2,1-ij]quinolin-9-yl)vinyl)pyrylium boron tetrafluoride salt] |  |  |  |  | MIC (Enterococcus faecalis; [1]): 1 µg/mL; MIC (Enterococcus faecalis; [2]): 2 µg/mL; MIC (Enterococcus faecalis; [3]): 1 µg/mL; MIC (Enterococcus faecium; [4]): 4 µg/mL; MIC (Enterococcus faecium; [5]): 8 µg/mL; MIC (Enterococcus faecium; read-out: MIC E. faecium S1559): 2 µg/mL
CN(C)c1ccc(/C=C/c2cc(-c3ccc(F)cc3)cc(-c3ccc(F)cc3)[n+]2C)cc1.[I-] [Compound 2jc39-1, (E)-2-(4-(dimethylamino)styryl)-4,6-bis(4-fluorophenyl)-1-methylpyridin-1-ium iodide salt] | 4 µg/mL | 4 µg/mL |  |  | 
CN(CCC#N)c1ccc(/C=C/c2cc(-c3ccc(F)cc3)cc(-c3ccc(Br)cc3)[n+]2C)cc1.[I-] [Compound 2jc39-4] | 16 µg/mL | 16 µg/mL |  |  | 
CN(C)c1ccc(/C=C/c2cc(-c3ccc(I)cc3)cc(-c3ccc(I)cc3)[o+]2)cc1.F[B-](F)(F)F |  |  | > 64 µg/mL | > 64 µg/mL | 
CN(CCC#N)c1ccc(/C=C/c2cc(-c3ccc(Cl)cc3)cc(-c3ccc(Br)cc3)[n+]2C)cc1.[I-] [Compound 2jc43-4, (E)-2-(4-bromophenyl)-4-(4-chlorophenyl)-6-(4-((2-cyanoethyl)(methyl)amino)styryl)-1-methylpyridin-1-ium iodide salt] | 16 µg/mL | 32 µg/mL |  |  | 

Compound | MIC EF 15951 (Enterococcus faecalis) | MIC SA USA300 (Staphylococcus aureus) | MIC (Enterococcus faecalis; [6]) | MIC (Staphylococcus aureus) | further results
CN(CCC#N)c1ccc(/C=C/c2cc(-c3ccc(I)cc3)cc(-c3ccc(I)cc3)[o+]2)cc1.F[B-](F)(F)F |  |  | > 64 µg/mL | > 64 µg/mL | 
CCCN1CCCc2cc(/C=C/c3cc(-c4ccc(Br)cc4)cc(-c4ccc(Br)cc4)[o+]3)ccc21.F[B-](F)(F)F |  |  | > 64 µg/mL | > 64 µg/mL | 
CCCN1CCCc2cc(/C=C/c3cc(-c4ccc(F)cc4)cc(-c4ccc(F)cc4)[o+]3)ccc21.F[B-](F)(F)F |  |  | > 64 µg/mL | > 64 µg/mL | 
Cc1ccc(-c2cc(/C=C/c3ccc(N(C)CCC#N)cc3)[o+]c(-c3ccc(C)cc3)c2)cc1.F[B-](F)(F)F |  |  | > 64 µg/mL | > 64 µg/mL | 
CN(CCC#N)c1ccc(/C=C/c2cc(-c3ccc(C(C)(C)C)cc3)cc(-c3ccc(C(C)(C)C)cc3)[o+]2)cc1.F[B-](F)(F)F |  |  | > 64 µg/mL | > 64 µg/mL | 
CN(CCC#N)c1ccc(/C=C/c2cc(-c3ccc(N(C)CCC#N)cc3)cc(-c3ccc(Br)cc3)[n+]2C)cc1.[I-] [Compound 3jc01-8] | 2 µg/mL | 1 µg/mL |  |  | 
CN(CCC#N)c1ccc(/C=C/c2cc(-c3ccc(Br)cc3)cc(-c3ccc(Br)cc3)[o+]2)cc1.F[B-](F)(F)F |  |  | > 64 µg/mL | > 64 µg/mL | 
CN(C)c1ccc(/C=C/c2cc(-c3ccc(Cl)cc3)cc(-c3ccc(Br)cc3)[n+]2C)cc1.[I-] [Compound 2jc43-3, (E)-2-(4-bromophenyl)-4-(4-chlorophenyl)-6-(4-(dimethylamino)styryl)-1-methylpyridin-1-ium iodide salt] | 2 µg/mL | 2 µg/mL |  |  | 
CN(CCC#N)c1ccc(/C=C/c2cc(-c3ccccc3)cc(-c3ccccc3)[o+]2)cc1.F[B-](F)(F)F |  |  | > 64 µg/mL | > 64 µg/mL | 
CN(CCC#N)c1ccc(/C=C/c2cc(-c3ccc(F)cc3)cc(-c3ccc(F)cc3)[o+]2)cc1.F[B-](F)(F)F [drawing 385] |  |  | > 64 µg/mL | > 64 µg/mL | 
CN(C)c1ccc(/C=C/c2cc(-c3ccc(F)cc3)cc(-c3ccc(Br)cc3)[n+]2C)cc1.[I-] [Compound 2jc39-3, (E)-2-(4-bromophenyl)-6-(4-(dimethylamino)styryl)-4-(4-fluorophenyl)-1-methylpyridin-1-ium iodide salt] | 4 µg/mL | 4 µg/mL |  |  | 
CN(C)c1ccc(/C=C/c2cc(-c3ccc(N(C)CCC#N)cc3)cc(-c3ccc(Br)cc3)[n+]2C)cc1.[I-] [Compound 3jc01-7] | 2 µg/mL | 1 µg/mL |  |  | 
CN(CCC#N)c1ccc(/C=C/c2cc(-c3ccc(F)cc3)cc(-c3ccc(F)cc3)[n+]2C)cc1.[I-] [Compound 2jc39-2, (E)-2-(4-((2-cyanoethyl)(methyl)amino)styryl)-4,6-bis(4-fluorophenyl)-1-methylpyridin-1-ium iodide salt] | 16 µg/mL | 16 µg/mL |  |  | 
CCN(CCC#N)c1ccc(/C=C/c2cc(-c3ccc(F)cc3)cc(-c3ccc(F)cc3)[o+]2)c(C)c1.F[B-](F)(F)F |  |  | > 64 µg/mL | > 64 µg/mL | 
CN(CCC#N)c1ccc(/C=C/c2cc(-c3ccc(C(F)(F)F)cc3)cc(-c3ccc(C(F)(F)F)cc3)[o+]2)cc1.F[B-](F)(F)F |  |  | > 64 µg/mL | > 64 µg/mL | 
Cc1ccc(-c2cc(/C=C/C=C3/N(C)c4ccccc4C3(C)C)[o+]c(-c3ccc(C)cc3)c2)cc1 [Compound 6jc67A, 2,4-di-p-tolyl-6-((1E,3E)-3-(1,3,3-trimethylindolin-2-ylidene)prop-1-en-1-yl)pyrylium boron tetrafluoride salt] |  |  |  |  | MIC (Enterococcus faecalis; [1]): 1 µg/mL; MIC (Enterococcus faecalis; [2]): 1 µg/mL; MIC (Enterococcus faecalis; [3]): 1 µg/mL; MIC (Enterococcus faecium; [4]): 1 µg/mL; MIC (Enterococcus faecium; [5]): 2 µg/mL; MIC (Enterococcus faecium; read-out: MIC E. faecium S1559): 1 µg/mL
